Experimental data as given in article PMC3651043 (Biochemistry, 2013).

What was measured:
[1] = molecular target: tKSI (ketosteroid isomerase from Comamonas testosteroni) (Comamonas testosteroni, UniProt P00947); assay: intrinsic fluorescence quenching; type: binding
[2] = molecular target: pKSI (ketosteroid isomerase from Pseudomonas putida) (Pseudomonas putida, UniProt P07445, D40N); assay: biochemical
[3] = molecular target: tKSI (ketosteroid isomerase from Comamonas testosteroni) (Comamonas testosteroni, UniProt P00947, D38A); assay: intrinsic fluorescence quenching; type: binding
[4] = molecular target: tKSI (ketosteroid isomerase from Comamonas testosteroni) (Comamonas testosteroni, UniProt P00947, D38N); assay: biochemical
[5] = molecular target: pKSI (ketosteroid isomerase from Pseudomonas putida) (Pseudomonas putida, UniProt P07445, D40A); assay: intrinsic fluorescence quenching; type: binding
[6] = molecular target: pKSI (ketosteroid isomerase from Pseudomonas putida) (Pseudomonas putida, UniProt P07445); assay: intrinsic fluorescence quenching; type: binding
Sequence of pKSI (ketosteroid isomerase from Pseudomonas putida) (Pseudomonas putida, UniProt P07445) (P07445 whole entry): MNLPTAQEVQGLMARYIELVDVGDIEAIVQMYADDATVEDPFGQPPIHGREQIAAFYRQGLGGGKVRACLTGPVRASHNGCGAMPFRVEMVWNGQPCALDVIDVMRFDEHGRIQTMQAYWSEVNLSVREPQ

Sequence of pKSI (ketosteroid isomerase from Pseudomonas putida) (Pseudomonas putida, UniProt P07445, D40A) (P07445 whole entry D40A): as the sequence (P07445 whole entry) above, with D40A counted along it
Sequence of tKSI (ketosteroid isomerase from Comamonas testosteroni) (Comamonas testosteroni, UniProt P00947) (P00947 whole entry): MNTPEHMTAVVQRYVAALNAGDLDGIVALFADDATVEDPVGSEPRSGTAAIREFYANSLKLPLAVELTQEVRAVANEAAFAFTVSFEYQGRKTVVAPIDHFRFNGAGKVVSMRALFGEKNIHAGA
Sequence of tKSI (ketosteroid isomerase from Comamonas testosteroni) (Comamonas testosteroni, UniProt P00947, D38A) (P00947 whole entry D38A): as the sequence (P00947 whole entry) above, with D38A counted along it
Sequence of tKSI (ketosteroid isomerase from Comamonas testosteroni) (Comamonas testosteroni, UniProt P00947, D38N) (P00947 whole entry D38N): as the sequence (P00947 whole entry) above, with D38N counted along it
Sequence of pKSI (ketosteroid isomerase from Pseudomonas putida) (Pseudomonas putida, UniProt P07445, D40N) (P07445 whole entry D40N): as the sequence (P07445 whole entry) above, with D40N counted along it

`C[C@]12CCC(=O)C=C1CC[C@@H]1[C@@H]2CC[C@]2(C)C(=O)CC[C@@H]12` [4-androstene-3,17-dione] showed a Kd [1] of 62.5 µM, a Kd [2] of 1.33 µM and a Kd [3] of 0.909 µM. The Kd [4] was 15.9 µM, the Kd [5] was 0.385 µM and the Kd [6] was 62.5 µM.
